Non-standard residues stand in square brackets, D forms with d. Residues, ends and D or L forms follow the SMILES beside them.
Tests used:
EMRSA-15 [1] = test: 1H HR-MAS NMR metabolomics of bacterial pellets; assay type: cell-based, Staphylococcus aureus; conditions: EMRSA-15 in MHB, sub-inhibitory challenge v unchallenged; fold change, 1H HR-MAS NMR of pellets
Protocol: S. aureus EMRSA-15 and P. aeruginosa RP73 were streaked on Mueller Hinton agar plates and RPMI (supplemented with 5% FBS) agar plates and incubated at 37 °C overnight or until single colonies formed. […] Cultures were incubated overnight at 37 °C without shaking and pelleted by centrifugation at 4 °C. The supernatant was removed and filtered separately for spent media analysis, the pellet was briefly washed three times with phosphate buffered saline (PBS). The pellets were frozen in liquid nitrogen and lyophilised overnight in an Alpha 1–2 LD plus freeze dryer (Martin Christ, Germany) and stored at −20 °C until required. Samples were transferred into HR-MAS inserts for use in 4 mm Bruker MAS rotor and resuspended in 30 μl of D2O containing 3-(Trimethylsilyl)propionic-2,2,3,3-D4 acid sodium salt (TMSP-2,2,3,3-D4). The removed supernatant was filtered through 0.2 μm filters and pH adjusted to within 0.3 pH units within the same sample set. The samples were supplemented with 10% D2O containing TMSP-2,2,3,3-D4 and loaded into 5.0 mm NMR tubes.
NMR spectra were collected at 600 MHz for ^1H on a Bruker Avance II spectrometer (Bruker Biospin, Coventry, UK) with a 4 mm HR-MAS probe at 310 K while spinning at 5 kHz. ^1H NMR spectra were acquired using a Carr-Purcell Meiboom-Gill pre-saturation (cpmgpr1d) pulse sequence with a spectrum width of 16.0 ppm and 9615 data points using 64 transients. Free induction decay was multiplied by an exponential function with 0.293 Hz line broadening. 2D ^1H–^1H correlation spectroscopy (COSY) and ^1H–^13C Heteronuclear Single Quantum Correlation (HSQC) experiments were performed on representative datasets using standard Bruker settings.
The spectra were Fourier transformed automatically using standard Bruker commands and manually phased and baseline corrected in Bruker TopSpin 4.0 (Bruker Biospin, Coventry, UK). Spectral pre-processing, cross-validation and multivariate analysis were carried out using the in-house programme developed by Dr Louic Vermeer and MVAPACK, an opensource Octave library for NMR metabolomic data processing and analysis. Pre-processing modifies NMR spectra and reduces the variances and influences which are not of interest and may interfere with data analysis, for example, residual water peak or noise and the TSP reference peak. Initially a principle component analysis was carried out to identify clustering spectra and potential outliers in the data, due to e.g. poor baseline. Data were then subject to probabilistic quotient normalisation before binning and alignment. Orthogonal Projections to Latent Structures Discriminant Analysis analyses were conducted to establish the quality of binary comparisons of the metabolomic data (Supplementary Table 4). […] The Mann–Whitney U test was used to compare means and associated p values were false discovery rate adjusted using the Benjamini-Hochberg method (α = 0.05). Box plots were generated using changes in normalised intensity for each metabolite and significant differences between challenges and controls were determined using a one-way ANOVA. Volcano plots and box plots were generated using in-house software developed for Jupyter Notepad using Python 3.7.0. Metabolites were assigned using the databanks: Chenomx NMR suite software (Chenomx Inc., Canada), Human Metabolome Database, BMRB, E. coli Metabolome Database and AOCS lipid library; and a comparison of chemical shifts to the literature, which was confirmed using 2D NMR spectra. Annotated spectra can be found in the supplementary materials (Supplementary Fig. 15). Metaboanalyst and KEGG were later used to identify key pathways that may be affected by these metabolites.

TNFα = test: Murine EMRSA-15 lung infection model: BAL cytokine ELISA; assay type: in vivo, C57Bl6J mice; conditions: vancomycin or D-pleurocidin-KR i.v., 48 h
EMRSA-15 [2] = test: Murine EMRSA-15 lung infection model: lung CFU; assay type: in vivo, C57Bl6J mice
Excerpt: CFUs were quantified in lung homogenates.

KC = test: Murine EMRSA-15 lung infection model: BAL cytokine ELISA; assay type: in vivo, C57Bl6J mice; conditions: 600 mg/kg vancomycin or the two higher D-pleurocidin-KR doses (15, 1.5 mg/kg) i.v., 48 h
BAL cells = test: Murine EMRSA-15 lung infection model: BAL total and differential cell count; assay type: in vivo, C57Bl6J mice; conditions: 48 h
Protocol: Using the recently developed method[65], an overnight culture of EMRSA-15 was prepared in tryptic soy broth (TSB). EMRSA-15 was cultured in TSB overnight at 37 °C, adjusted to a starting OD600 of 0.025, and grown for additional 4 h for agar beads preparation. EMRSA-15 was embedded into agar beads by mixing the overnight culture with molten tryptic soy agar, which was then spun into warmed mineral oil. The preparation was cooled and centrifuged at 2700 × g, the remaining oil was eliminated, and the beads were washed in sterile PBS. The CFU content of the beads slurry was subsequently quantified on TSA plates and the beads slurry then diluted to 2 × 10^7 CFU/ml in sterile PBS to deliver a final dose of 1 × 10^6 CFU/mouse. Animal work was performed in accordance with the Animals (Scientific Procedures) Act of 1986 (United Kingdom) and 2012 revisions with local ethical approval of King’s College London. On day 0, male C57Bl6J mice (8–10 weeks, Charles River) were anaesthetised under Isoflurane and 50 µl inoculum of EMRSA-15 embedded in agar beads (10^6 CFU/mouse) was instilled directly into the respiratory tract via oropharyngeal dosing (o.a.). Sham control mice were inoculated with sterile PBS agar beads. […] Body weight was measured daily, and animals monitored at regular intervals for signs of pain and distress. After 48 h of pulmonary infection, animals were terminally euthanized using 25% urethane via intra-peritoneal injection. CFUs were quantified in lung homogenates. Lung homogenates were then centrifuged at 14000 rpm for 30 min at 4 °C and the supernatants were stored at −80 °C for future analysis. For BAL fluid collection and analysis (total and differential cell count), a 22-gauge catheter was inserted into the trachea and BAL was recovered by instillation of 0.5 ml of sterile PBS three times and total cells counts were performed by adding Turks stain in a 1:1 ratio. BAL fluid was then centrifuged, and supernatants were stored at −20 °C. Total levels of TNFα, IL-6, KC and MCP-1 were quantified from BAL fluid collected from all animals and measured by ELISA according to the manufacturer protocol (R&D Systems UK). Concentrations of all mediators were then normalised to total protein content of BAL fluid quantified via bicinchoninic acid total protein assays performed to manufacturers protocols (Thermofisher Scientific). […] Statistical analysis was by one-way ANOVA with Dunnett’s multiple comparisons test.

CC(C)C[C@@H](NC(=O)[C@@H](Cc1ccc(O)cc1)NC(=O)[C@@H](Cc1c[nH]cn1)NC(=O)[C@H](NC(=O)[C@@H](CC(C)C)NC(=O)[C@@H](C)NC(=O)[C@@H](C)NC(=O)[C@@H](CCCNC(=N)N)NC(=O)CNC(=O)[C@H](NC(=O)[C@@H](Cc1c[nH]cn1)NC(=O)[C@@H](CCCNC(=N)N)NC(=O)CNC(=O)[C@H](NC(=O)[C@@H](Cc1c[nH]cn1)NC(=O)[C@@H](C)NC(=O)[C@@H](C)NC(=O)[C@@H](CCCNC(=N)N)NC(=O)[C@@H](CCCNC(=N)N)NC(=O)[C@@H](Cc1ccccc1)NC(=O)[C@@H](Cc1ccccc1)NC(=O)[C@@H](CO)NC(=O)CNC(=O)[C@@H](Cc1c[nH]c2ccccc12)NC(=O)CN)C(C)C)C(C)C)[C@H](C)O)C(N)=O [D-pleurocidin-KR] (H-G[dW]G[dS][dF][dF][dR][dR][dA][dA][dH][dV]G[dR][dH][dV]G[dR][dA][dA][dL][dT][dH][dY][dL]-NH2; N-terminus assumed)
fc 2-aminobutyrate (EMRSA-15 [1]): 0.991
fc Acetate (EMRSA-15 [1]): 1.149
fc Acetyl-Phosphocholine (1) (EMRSA-15 [1]): 0.9923
fc Acetyl-Phosphocholine (2) (EMRSA-15 [1]): 1.003
fc Adenosine (EMRSA-15 [1]): 1.125
fc Alanine (EMRSA-15 [1]): 0.9478
fc Aspartate (EMRSA-15 [1]): 0.8483
fc Betaine (EMRSA-15 [1]): 0.9779
fc Choline (EMRSA-15 [1]): 1.051
fc Citrulline (EMRSA-15 [1]): 0.9363
fc Glutamate (EMRSA-15 [1]): 0.896
fc Glycerol (lipid headgroup) (1) (EMRSA-15 [1]): 0.9028
fc Glycerol (lipid headgroup) (2) (EMRSA-15 [1]): 1.031
fc Glycerol (lipid headgroup) (3) (EMRSA-15 [1]): 0.9777
fc Isoleucine (EMRSA-15 [1]): 1.148
fc Lactate (EMRSA-15 [1]): 1.293
fc Leucine (EMRSA-15 [1]): 1.172
fc Lipid -CH=CH- (EMRSA-15 [1]): 1.134
fc Lipid-CH₃ (EMRSA-15 [1]): 1.116
fc Lysine (EMRSA-15 [1]): 1.027
fc N-acetyl-x (1) (EMRSA-15 [1]): 0.8941
fc N-acetyl-x (2) (EMRSA-15 [1]): 1.036
fc N-acetyl-x (3) (EMRSA-15 [1]): 0.9489
fc Proline (EMRSA-15 [1]): 1.056
fc Succinate (EMRSA-15 [1]): 0.8785
fc Unassigned 1.47ppm (EMRSA-15 [1]): 0.8868
fc Unassigned 3.4802ppm (EMRSA-15 [1]): 0.9293
fc Unassigned 8.55ppm (EMRSA-15 [1]): 0.9285
fc Uracil (EMRSA-15 [1]): 1.738
fc Valine (EMRSA-15 [1]): 1.029
fc ᴅ-alanine (LTA) (EMRSA-15 [1]): 1.157
levels of TNFα in BAL (TNFα): No effects
reduction in lung CFU (EMRSA-15 [2]; cumulative 1.5 mg/kg/48 h i.v. (three doses at 4, 24, 30 h post infection)): 0.9 log10
reduction in lung CFU (EMRSA-15 [2]; cumulative 15 mg/kg/48 h i.v. (three doses at 4, 24, 30 h post infection)): 1.1 log10
reduction in lung CFU (EMRSA-15 [2]; lowest dose, cumulative 0.15 mg/kg i.v., 48 h): did not cause a significant reduction
KC levels in BAL (KC): fall to that of the uninfected group
neutrophil recruitment (BAL) (BAL cells; 600 mg/kg vancomycin or D-pleurocidin-KR (also lowest dose 0.15 mg/kg) i.v.): reduced
macrophage numbers in BAL (BAL cells; vancomycin or D-pleurocidin-KR i.v.): No effects

Reference: paper PMC7699649 (Communications Biology, 2020)
